Experiments:
Assay type in all cases: in vivo
Veronica persica [1] = assay: Post-emergence herbicidal efficacy at 320 g/ha, VERPE; conditions: rated visually after about 3 weeks vs untreated controls, 100% = plants have died
How it was run: (§1)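 Effects are visual ratings taken about three weeks after foliar application, scaled from 0% (as untreated control) to 100% (plants died). Application was at the one-leaf stage in greenhouse-grown pots.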

Echinochloa crus-galli [2] = assay: Pre-emergence herbicide efficacy at 320 g/ha, ECHCG; conditions: scored visually after about 3 weeks vs untreated controls, 100% = plants have died
How it was run: (§2)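 Seeds were sown in sandy loam and covered with soil; WP or EC formulations were then sprayed onto the soil surface at 320 g/ha in 600 L/ha water with 0.5% additive. After about 3 weeks in the greenhouse, efficacy was scored visually as % versus untreated controls (100% = plants dead, 0% = like control).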

Amaranthus retroflexus [3] = assay: Post-emergence herbicidal efficacy at 320 g/ha, AMARE; conditions: rated visually after about 3 weeks vs untreated controls, 100% = plants have died
How it was run: as §1

Abutilon theophrasti [4] = assay: Pre-emergence herbicide efficacy at 320 g/ha, ABUTH; conditions: scored visually after about 3 weeks vs untreated controls, 100% = plants have died
Description: (§3) Unwanted plants/weeds: • ABUTH: Abutilon theophrasti • ALOMY: Alopecurus myosuroides • AMARE: Amaranthus retroflexus • DIGSA: Digitaria sanguinalis • ECHCG: Echinochloa crus-galli • KCHSC: Kochia scoparia • LOLRI: Lolium rigidum • MATIN: Matricaria inodora • POAAN: Poa annua • POLCO: Polygonum convolvulus • SETVI: Setaria viridis • STEME: Stellaria media • VERPE: Veronica persica • VIOTR: Viola tricolor A. Post-Emergence Herbicidal Efficacy at 320 g/ha
(§4) Seeds of mono- and dicotyledonous weed plants were placed in plastic pots in sandy loam soil (doubly sown with one species each of mono- or dicotyledonous weed plants per pot) and covered with soil. The compounds of the invention, formulated in the form of wettable powders (WP) or as emulsion concentrates (EC), were then applied to the surface of the covering soil as aqueous suspension or emulsion with addition of 0.5% additive at a water application rate of 600 litres per hectare (converted). After the treatment, the pots were placed in a greenhouse and kept under good growth conditions for the test plants. After about 3 weeks, the efficacy of the preparations was scored visually in comparison with untreated controls as percentages.
(§5) For example, 100% activity=the plants have died, 0% activity=like control plants.
(§6) Tables C1 to C12 below show the effects of selected compounds of the general formula (I) according to Table 1 on various harmful plants and at an application rate corresponding to 320 g/ha, which were obtained by the trial procedure specified above.

Viola tricolor [5] = assay: Pre-emergence herbicide efficacy at 80 g/ha, VIOTR
Description: as §3
(§7) Seeds of monocotyledonous and dicotyledonous weed plants and crop plants were placed in plastic or organic planting pots and covered with soil. The compounds of the invention, formulated in the form of wettable powders (WP) or as emulsion concentrates (EC), were then applied to the surface of the covering soil as aqueous suspension or emulsion with addition of 0.5% additive at a water application rate equivalent to 600 l/ha. After the treatment, the pots were placed in a greenhouse and kept under good growth conditions for the test plants. After about 3 weeks, the efficacy of the preparations was scored visually in comparison with untreated controls as percentages. For example, 100% activity=the plants have died, 0% activity=like control plants.
(§8) Tables D1 to D12 below show the effects of selected compounds of the general formula (I) according to Table 1 on various harmful plants and an application rate corresponding to 80 g/ha, which were obtained by the experimental procedure mentioned above.

Viola tricolor [6] = assay: Post-emergence herbicidal efficacy at 80 g/ha, VIOTR; conditions: rated visually after about 3 weeks vs untreated controls, 100% = plants have died
Description: as §3
Seeds of monocotyledonous and dicotyledonous weeds and crop plants were placed in sandy loam in plastic or organic planting pots, covered with soil and cultivated in a greenhouse under controlled growth conditions. 2 to 3 weeks after sowing, the test plants were treated at the one-leaf stage. The compounds of the invention, formulated in the form of wettable powders (WP) or as emulsion concentrates (EC), were then sprayed onto the green parts of the plants as aqueous suspension or emulsion with addition of 0.5% additive at a water application rate of 600 l/ha (converted). After the test plants had been kept in the greenhouse under optimum growth conditions for about 3 weeks, the activity of the preparations was rated visually in comparison to untreated controls. For example, 100% activity=the plants have died, 0% activity=like control plants.
Tables B1 to B11 below show the effects of selected compounds of the general formula (I) according to Table 1 on various harmful plants and an application rate corresponding to 80 g/ha, which were obtained by the experimental procedure mentioned above.

Polygonum convolvulus = assay: Pre-emergence herbicide efficacy at 80 g/ha, POLCO; conditions: scored visually after about 3 weeks vs untreated controls, 100% = plants have died
Description: as §3, §7, §8

Stellaria media [7] = assay: Post-emergence herbicidal efficacy at 320 g/ha, STEME; conditions: rated visually after about 3 weeks vs untreated controls, 100% = plants have died
How it was run: as §1

Veronica persica [8] = assay: Post-emergence herbicidal efficacy at 80 g/ha, VERPE; conditions: rated visually after about 3 weeks vs untreated controls, 100% = plants have died
How it was run: (§9)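 Weeds grown in sandy loam under greenhouse conditions and sprayed post-emergence at the one-leaf stage (2–3 weeks after sowing) with WP or EC formulations plus 0.5% additive, 600 l/ha water. Activity scored visually about 3 weeks later versus untreated controls (0% = like control, 100% = plants dead).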

Veronica persica [9] = assay: Pre-emergence herbicide efficacy at 320 g/ha, VERPE; conditions: scored visually after about 3 weeks vs untreated controls, 100% = plants have died
How it was run: as §2

Lolium rigidum = assay: Pre-emergence herbicide efficacy at 320 g/ha, LOLRI; conditions: scored visually after about 3 weeks vs untreated controls, 100% = plants have died
Description: as §3, §4, §5, §6

Amaranthus retroflexus [10] = assay: Post-emergence herbicidal efficacy at 80 g/ha, AMARE; conditions: rated visually after about 3 weeks vs untreated controls, 100% = plants have died
How it was run: as §9

Digitaria sanguinalis [11] = assay: Pre-emergence herbicide efficacy at 80 g/ha, DIGSA; conditions: scored visually after about 3 weeks vs untreated controls, 100% = plants have died
Description: as §3, §7, §8

Poa annua [12] = assay: Post-emergence herbicidal efficacy at 320 g/ha, POAAN; conditions: rated visually after about 3 weeks vs untreated controls, 100% = plants have died
Description: as §3
(§10) Seeds of mono- and dicotyledonous weed plants were placed in plastic pots in sandy loam soil (doubly sown with in each case one species of mono- or dicotyledonous weed plants per pot), covered with soil and cultivated in a greenhouse under controlled growth conditions. 2 to 3 weeks after sowing, the test plants were treated at the one-leaf stage. The compounds of the invention, formulated in the form of wettable powders (WP) or as emulsion concentrates (EC), were applied to the green parts of the plants as aqueous suspension or emulsion with addition of 0.5% additive at a water application rate equivalent to 600 litres per hectare. After the test plants had been kept in the greenhouse under optimum growth conditions for about 3 weeks, the activity of the preparations was rated visually in comparison to untreated controls.
as §5
(§11) Tables A1 to A10 below show the effects of selected compounds of the general formula (I) according to Table 1 on various harmful plants and at an application rate corresponding to 320 g/ha, which were obtained by the trial procedure specified above.

Kochia scoparia [13] = assay: Post-emergence herbicidal efficacy at 80 g/ha, KCHSC; conditions: rated visually after about 3 weeks vs untreated controls, 100% = plants have died
How it was run: as §9

Kochia scoparia [14] = assay: Post-emergence herbicidal efficacy at 320 g/ha, KCHSC; conditions: rated visually after about 3 weeks vs untreated controls, 100% = plants have died
How it was run: as §1

Echinochloa crus-galli [15] = assay: Post-emergence herbicidal efficacy at 320 g/ha, ECHCG; conditions: rated visually after about 3 weeks vs untreated controls, 100% = plants have died
How it was run: as §1

Abutilon theophrasti [16] = assay: Post-emergence herbicidal efficacy at 320 g/ha, ABUTH; conditions: rated visually after about 3 weeks vs untreated controls, 100% = plants have died
How it was run: as §1

Kochia scoparia [17] = assay: Pre-emergence herbicide efficacy at 320 g/ha, KCHSC; conditions: scored visually after about 3 weeks vs untreated controls, 100% = plants have died
How it was run: as §2

Kochia scoparia [18] = assay: Pre-emergence herbicide efficacy at 80 g/ha, KCHSC; conditions: scored visually after about 3 weeks vs untreated controls, 100% = plants have died
Description: as §3, §7, §8

Setaria viridis [19] = assay: Pre-emergence herbicide efficacy at 320 g/ha, SETVI; conditions: scored visually after about 3 weeks vs untreated controls, 100% = plants have died
How it was run: as §2

Veronica persica [20] = assay: Pre-emergence herbicide efficacy at 80 g/ha, VERPE
Description: as §3, §7, §8

Digitaria sanguinalis [21] = assay: Pre-emergence herbicide efficacy at 320 g/ha, DIGSA; conditions: scored visually after about 3 weeks vs untreated controls, 100% = plants have died
How it was run: as §2

Digitaria sanguinalis [22] = assay: Post-emergence herbicidal efficacy at 320 g/ha, DIGSA; conditions: rated visually after about 3 weeks vs untreated controls, 100% = plants have died
Description: as §3, §10, §5, §11

Setaria viridis [23] = assay: Post-emergence herbicidal efficacy at 320 g/ha, SETVI; conditions: rated visually after about 3 weeks vs untreated controls, 100% = plants have died
Description: as §3, §10, §5, §11

Amaranthus retroflexus [24] = assay: Pre-emergence herbicide efficacy at 80 g/ha, AMARE; conditions: scored visually after about 3 weeks vs untreated controls, 100% = plants have died
Description: as §3, §7, §8

Matricaria inodora = assay: Pre-emergence herbicide efficacy at 320 g/ha, MATIN; conditions: scored visually after about 3 weeks vs untreated controls, 100% = plants have died
Description: as §3, §4, §5, §6

Amaranthus retroflexus [25] = assay: Pre-emergence herbicide efficacy at 320 g/ha, AMARE; conditions: scored visually after about 3 weeks vs untreated controls, 100% = plants have died
How it was run: as §2

Setaria viridis [26] = assay: Pre-emergence herbicide efficacy at 80 g/ha, SETVI
Description: as §3, §7, §8

Poa annua [27] = assay: Pre-emergence herbicide efficacy at 320 g/ha, POAAN; conditions: scored visually after about 3 weeks vs untreated controls, 100% = plants have died
How it was run: as §2

Stellaria media [28] = assay: Pre-emergence herbicide efficacy at 320 g/ha, STEME; conditions: scored visually after about 3 weeks vs untreated controls, 100% = plants have died
How it was run: as §2

N#Cc1cccc(Nc2ncc(Cl)cn2)c1-n1cc(C(F)(F)F)cn1 [Example 1-38, 3-(5-Chloropyrimidin-2-ylamino)-2-(4-(trifluoromethyl)-1H-pyrazol-1-yl)benzonitrile]
Post-emergence efficacy at 320 g/ha against VERPE in % (Veronica persica [1]): 100%
Pre-emergence efficacy at 320 g/ha against ECHCG in % (Echinochloa crus-galli [2]): 90%
Post-emergence efficacy at 320 g/ha against AMARE in % (Amaranthus retroflexus [3]): 100%
Pre-emergence efficacy at 320 g/ha against ABUTH in % (Abutilon theophrasti [4]): 90%
Pre-emergence efficacy against VIOTR (Viola tricolor [5]): 100%
Post-emergence efficacy at 80 g/ha against VIOTR in % (Viola tricolor [6]): 100%
Pre-emergence efficacy at 80 g/ha against POLCO in % (Polygonum convolvulus): 100%
Post-emergence efficacy at 320 g/ha against STEME in % (Stellaria media [7]): 100%
Post-emergence efficacy at 80 g/ha against VERPE in % (Veronica persica [8]): 90%
Pre-emergence efficacy at 320 g/ha against VERPE in % (Veronica persica [9]): 100%
Pre-emergence efficacy at 320 g/ha against LOLRI in % (Lolium rigidum): 90%
Post-emergence efficacy at 80 g/ha against AMARE in % (Amaranthus retroflexus [10]): 100%
Pre-emergence efficacy at 80 g/ha against DIGSA in % (Digitaria sanguinalis [11]): 100%
Post-emergence efficacy at 320 g/ha against POAAN in % (Poa annua [12]): 90%
Post-emergence efficacy at 80 g/ha against KCHSC in % (Kochia scoparia [13]): 100%
Post-emergence efficacy at 320 g/ha against KCHSC in % (Kochia scoparia [14]): 100%
Post-emergence efficacy at 320 g/ha against ECHCG in % (Echinochloa crus-galli [15]): 100%
Post-emergence efficacy at 320 g/ha against ABUTH in % (Abutilon theophrasti [16]): 90%
Pre-emergence efficacy at 320 g/ha against KCHSC in % (Kochia scoparia [17]): 90%
Pre-emergence efficacy at 80 g/ha against KCHSC in % (Kochia scoparia [18]): 100%
Pre-emergence efficacy at 320 g/ha against SETVI in % (Setaria viridis [19]): 100%
Pre-emergence efficacy against VERPE (Veronica persica [20]): 90%
Pre-emergence efficacy at 320 g/ha against DIGSA in % (Digitaria sanguinalis [21]): 100%
Post-emergence efficacy at 320 g/ha against DIGSA in % (Digitaria sanguinalis [22]): 90%
Post-emergence efficacy at 320 g/ha against SETVI in % (Setaria viridis [23]): 90%
Pre-emergence efficacy at 80 g/ha against AMARE in % (Amaranthus retroflexus [24]): 100%
Pre-emergence efficacy at 320 g/ha against MATIN in % (Matricaria inodora): 100%
Pre-emergence efficacy at 320 g/ha against AMARE in % (Amaranthus retroflexus [25]): 100%
Pre-emergence efficacy against SETVI (Setaria viridis [26]): 100%
Pre-emergence efficacy at 320 g/ha against POAAN in % (Poa annua [27]): 100%
Pre-emergence efficacy at 320 g/ha against STEME in % (Stellaria media [28]): 100%
